Results from patent US20110098322A1, “PREPARATION OF NOVEL 1,3-S[…] AS INHIBITORS OF SOLUBLE EPOXIDE HYDROLASE” (priority 2007, published 2011).

Target: T1, Recombinant human sEH (Homo sapiens, UniProt P34913)
T1 construct: made in house
T1 sequence (P34913 1-555): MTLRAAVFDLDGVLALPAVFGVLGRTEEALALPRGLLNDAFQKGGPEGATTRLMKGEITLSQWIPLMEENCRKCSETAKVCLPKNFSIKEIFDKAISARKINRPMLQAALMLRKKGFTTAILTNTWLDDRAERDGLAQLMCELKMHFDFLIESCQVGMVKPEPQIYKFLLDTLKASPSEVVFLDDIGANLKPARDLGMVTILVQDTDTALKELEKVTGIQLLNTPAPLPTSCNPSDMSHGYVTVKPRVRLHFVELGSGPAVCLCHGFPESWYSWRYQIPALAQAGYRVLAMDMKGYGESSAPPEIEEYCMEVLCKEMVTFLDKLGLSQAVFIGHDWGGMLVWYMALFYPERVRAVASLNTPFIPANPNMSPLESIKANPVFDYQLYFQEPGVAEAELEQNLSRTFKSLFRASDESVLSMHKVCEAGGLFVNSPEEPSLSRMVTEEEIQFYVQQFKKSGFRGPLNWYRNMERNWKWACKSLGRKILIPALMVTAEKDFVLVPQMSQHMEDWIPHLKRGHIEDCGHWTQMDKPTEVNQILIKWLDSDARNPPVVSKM
Experiment: Inhibition of human soluble epoxide hydrolase (IC50 assay)
Format: biochemical
Text: This example provides assays and illustrates the inhibition of human soluble epoxide hydrolases by compounds of the invention.
Recombinant human sEH was produced in a baculovirus expression system and purified by affinity chromatography. The preparations were at least 97% pure as judged by SDS-PAGE and scanning densitometry. No detectable esterase or glutathione transferase activity, which can interfere with this sEH assay, was observed. Protein concentration was quantified by using the Pierce BCA assay using Fraction V bovine serum albumin as the calibrating standard.
IC50 values were determined in one of three methods. One method uses racemic 4-nitrophenyl-trans-2,3-epoxy-3-phenylpropyl carbonate as substrate. Enzyme (0.24 μM human sEH) was incubated with inhibitors for 5 min in sodium phosphate buffer, 0.1 M pH 7.4, at 30° C. before substrate introduction([S]=40 μM). Activity was assessed by measuring the appearance of the 4-nitrophenolate anion at 405 nm at 30° C. during 1 min (Spectramax 200; Molecular Devices). Assays were performed in triplicate. 1050 is a concentration of inhibitor, which reduces enzyme activity by 50%, and was determined by regression of at least five datum points with a minimum of two points in the linear region of the curve on either side of the IC50. The curve was generated from at least three separate runs, each in triplicate.
Other IC50 values were determined using the procedure described in Analytical
Biochemistry 343 66-75 (2005) using cyano(6-methoxy-naphthalen-2-yl)methyl trans-[(3-phenyloxiran-2-yl)methyl]carbonate as a substrate. Enzymes (0.96 nM for human sEH) were incubated with inhibitors ([I]=0.5-10,000 nM) for 5 min in BisTris-HCl buffer (25 mM, pH 7.0, containing 0.1 mg/ml of BSA) at 30° C. prior to substrate introduction ([S]=5 µM). Enzyme activity was measured by monitoring the appearance of 6-methoxy-2-naphthaldehyde. Assays were performed in triplicate. By definition, IC50 values are concentrations of inhibitor that reduce enzyme activity by 50%. IC50 values were determined by regression of at least five datum points, with a minimum of two datum points in the linear region of the curve on either side of the IC50 values. The curve was generated from at least three separate runs, each in triplicate.
Other inhibition potencies were determined using a fluorescent based high-throughput assay. Inhibitors in solution at 10 mM in DMSO were serially diluted by 10-fold increment in Bis/Tris HCl buffer (25 mM pH 7.0) containing 0.1 mg/mL of BSA (Buffer A). In black 96-well plates, 20 µL of the inhibitor dilution or buffer were delivered in every well, and then 130 μL of Human sEH at ˜0.4 μg/mL in solution in Buffer A were added to each well. The plate was then mixed and incubated at room temperature for 5 minutes. Fifty microliters of substrate ((3-Phenyl-oxiranyl)-acetic acid cyano-(6-methoxy-naphthalen-2-yl)-methyl ester; PHOME) at 200 μM in solution in 96:4 Buffer A:DMSO was then added to each well to give [S]final=50 μM and [E]final=˜4 nM. The plate was then mixed and incubated in the dark at room temperature (˜25° C.) for 90 min. Activity was measured by determining the relative quantity of 6-methoxy-2-naphthaldehyde formed with an excitation wavelength of 316 nm and an emission wavelength of 460 nm measured with a SpectraMax M-2 fluorometer (molecular Devices, Sunnyvale, Calif.).
Assays were conducted with the compounds indicated in the table below, as described above.

Row | SMILES | IC50 [nM]
1 | C=C(C)c1cccc(C(C)(C)NC(=O)NC2CCCCC2)c1 [Compound 1520] | 11.4
2 | CC(C)c1cccc(C(C)(C)NC(=O)NC2CCCCC2)c1 [Compound 1713, 1-cyclohexyl-3-(2-(3-isopropylphenyl)propan-2-yl)urea] | 7.5
3 | C=C(C)c1cccc(C(C)(C)NC(=O)NCCCCCCCCCCCC)c1 [Compound 1714] | 33
4 | CCCCCCCCCCCCNC(=O)NC(C)(C)c1cccc(C(C)C)c1 [Compound 1715] | 10.9
5 | C=C(C)c1cccc(C(C)(C)NC(=O)Nc2cccc(C(=O)OCC)c2)c1 [Compound 1716] | 41.3
6 | CCOC(=O)c1cccc(NC(=O)NC(C)(C)c2cccc(C(C)C)c2)c1 [Compound 1717] | 158
7 | C=C(C)c1cccc(C(C)(C)NC(=O)Nc2cccc(C(=O)O)c2)c1 [Compound 1718] | 7920
8 | CC(C)c1cccc(C(C)(C)NC(=O)Nc2cccc(C(=O)O)c2)c1 [Compound 1719] | 1610
9 | CC(C)c1cccc(C(C)(C)NC(=O)NCCCCc2ccccc2)c1 [Compound 1805] | 11.5
10 | CC(C)c1cccc(C(C)(C)NC(=O)NCC2CCN(C(=O)OC(C)(C)C)CC2)c1 [Compound 1806] | 5.6
11 | CC(C)c1cccc(C(C)(C)NC(=O)NCCc2ccc(C(=O)O)cc2)c1 [Compound 1807] | 2890
12 | CC(C)c1cccc(C(C)(C)NC(=O)NCCCCCCCCCCCC(=O)O)c1 [Compound 1808] | 52.5
13 | CC(C)c1cccc(C(C)(C)NC(=O)NC2CCC(C(=O)O)CC2)c1 (stereo not drawn) [Compound 1852] | 555
14 | CC(C)c1cccc(C(C)(C)NC(=O)NC2CCN(C(=O)OC(C)(C)C)CC2)c1 [Compound 1868] | 21.6
15 | C=C(C)c1cccc(C(C)(C)NC(=O)N[C@H]2CC[C@H](O)CC2)c1 [Compound 1887, trans-1-(4-Hydroxy-cyclohexyl)-3-[1-(3-isopropenyl)-1-methyl-ethyl]-urea] | 76.7
16 | CC(C)c1cccc(C(C)(C)NC(=O)NC2CCC(O)CC2)c1 (stereo not drawn) [Compound 1892] | 393
17 | CC(C)c1cccc(C(C)(C)NC(=O)N[C@H]2CC[C@H](Oc3ccc(C#N)cc3)CC2)c1 [Compound 1908, trans-1-[4-(4-Cyano-phenoxy)-cyclohexyl]-3-[1-(3-isopropyl-phenyl)-1-methyl-ethyl]-urea] | 9.8
18 | CC(C)c1cccc(C(C)(C)NC(=O)NCc2ccc(Oc3ccccc3)cc2)c1 [Compound 1955] | 10.6
19 | CC(C)c1cccc(C(C)(C)NC(=O)N[C@H]2CC[C@H](Oc3ccc(C(=O)O)cc3)CC2)c1 [Compound 1956] | 3.9
20 | CC(C)c1cccc(C(C)(C)NC(=O)NC2CCN(S(C)(=O)=O)CC2)c1 [Compound 2048] | 97.6
21 | CC(=O)N1CCC(NC(=O)NC(C)(C)c2cccc(C(C)C)c2)CC1 [Compound 2064] | 444
